Data as given in patent publication US20070015840A1, “Use of an alkyl ether of hydroxystilbene for the treatment of dry skin” (L'OREAL, priority 2002, published 2007).

Test system: immortalized human sebocytes derived from the SZ95 line
Experiment: Lipogenesis in immortalized human sebocytes in culture (SZ95 line), Nile Red fluorescence, total lipids
Type: cell-based
Conditions: for VARIATION IN LIPIDS (relative to the control): 0.1% DMSO, 24 hours treatment, total lipids, Nile Red
Method: Resveratrol trimethyl ether was tested on a model of immortalized human sebocytes in culture, derived from the SZ95 line described in Zouboulis, C. C., Seltmann, H., Neitzel, H. & Orfanos, C. E., Establishment and Characterization of an Immortalized Human Sebaceous Gland Cell Line, J. Invest. Dermatol., 113, 1011-1020 (1999).
The test consisted in measuring the amount of lipids produced by the sebocytes of the line (at confluence), in the presence or absence of an active agent diluted in DMSO, at two different concentrations, such that the final amount of DMSO in the culture medium is 0.1% and the amount of resveratrol trimethyl ether is 0.01% (4×10^−4 M) and 0.001% (4×10^−5 M), respectively. After treatment for 24 hours, the adherent cells are treated with Nile Red (1 μg/ml). The lipid content is then quantified by measuring the fluorescence of the dye (two excitation/emission pairs: 485-540 nm for the neutral lipids and 540-620 nm for the non-neutral lipids). The results are given for the total lipids (combination of the two measurements).
The experiment is performed in sextuplicate (products assayed and control) in 96-well plates and repeated four times.

Row | Structure (SMILES) | VARIATION IN LIPIDS (relative to the control) (0.001% (4×10^−5 M) compound) | VARIATION IN LIPIDS (relative to the control) (0.01% (4×10^−4 M) compound) | inhibition of lipogenesis (0.001%, same conditions as resveratrol trimethyl ether (second of 'respectively')) [%] | inhibition of lipogenesis (0.01%, same conditions as resveratrol trimethyl ether (first of 'respectively')) [%] | ability of sebocytes to produce sebum (qualitative statement in the description)
1 | COc1ccc(C=Cc2cc(OC)cc(OC)c2)cc1 [resveratrol trimethyl ether, Resveratrol trimethyl ether] | +36% | +46% |  |  | 
2 | Oc1ccc(C=Cc2cc(O)cc(O)c2)cc1 [resveratrol] |  |  | 67 | 20 | decreased
